Measurements: patent US9815864B2, “Substituted nucleosides, nucleotides and analogs thereof” (Alios BioPharma, Inc., priority 2013, dated 2017)
Where two headings read alike, the source gives them in different places.

How the values were obtained:
Murine norovirus (MNV-1) = assay: Norovirus MNV-1 antiviral assay (CPE reduction, CellTiter-Glo, RAW 264.7 cells); type: cell-based
NV genome in HG23 cells = assay: Norovirus replicon assay (HG23 cells, NV genome by qRT-PCR); type: cell-based, genogroup 1 norovirus
[1] = target: Norovirus polymerase (NoVpol, genotype II) (Lordsdale virus, UniProt P54634); assay: biochemical; conditions: 50 nM recombinant enzyme, 2.5 hours at 30° C.; read-out: IC50
[2] = RAW264.7, 72 h, RAW 264.7 cells infected with MNV-1 (MOI of 0.001), 3 days, read-out: EC50
[3] = Norovirus, HG23 cells, reduction of NV genome vs mock-medium at 48 h, read-out: EC50
[4] = RAW 264.7 cells infected with MNV-1 (MOI of 0.001), 3 days, read-out: EC50
[5] = HG23 cells, reduction of NV genome vs mock-medium at 48 h, read-out: EC50

Norovirus polymerase (NoVpol, genotype II), sequence (P54634 1190-1699 limits assumed): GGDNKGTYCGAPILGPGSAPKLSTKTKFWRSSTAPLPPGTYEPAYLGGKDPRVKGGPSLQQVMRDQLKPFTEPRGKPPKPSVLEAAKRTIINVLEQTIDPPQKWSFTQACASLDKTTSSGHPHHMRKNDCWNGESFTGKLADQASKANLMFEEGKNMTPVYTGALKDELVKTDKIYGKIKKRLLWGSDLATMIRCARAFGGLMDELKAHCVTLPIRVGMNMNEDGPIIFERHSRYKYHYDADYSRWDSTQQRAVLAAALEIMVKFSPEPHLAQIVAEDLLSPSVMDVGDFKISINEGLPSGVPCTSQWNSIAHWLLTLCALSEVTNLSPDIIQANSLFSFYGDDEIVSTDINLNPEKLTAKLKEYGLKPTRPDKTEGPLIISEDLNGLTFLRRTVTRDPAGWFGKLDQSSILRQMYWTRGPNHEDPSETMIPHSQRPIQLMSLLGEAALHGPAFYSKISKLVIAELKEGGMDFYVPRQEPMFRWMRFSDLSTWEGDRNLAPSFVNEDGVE

Structure (SMILES)	EC50 (Murine norovirus (MNV-1); [2])	EC50 (NV genome in HG23 cells; [3])	IC50 [1]	further results
Nc1ccn([C@@H]2O[C@@](CO)(CCl)[C@@H](O)[C@H]2O)c(=O)n1 [Compound 271a]	10 to 100 µM	10 to 100 µM	–	–
C#C[C@@]1(O)[C@H](O)[C@@H](CO)O[C@H]1n1ccc2c(N)ncnc21 [Compound 291a]	< 1 µM	< 1 µM	–	–
CCOc1nc(N)nc2c1ncn2[C@@H]1O[C@]2(F)CO[P@@](=O)(OC(C)C)O[C@H]2[C@@]1(C)O [Compound 145a]	10 to 100 µM	–	–	–
CCOc1nc(N)nc2c1ncn2[C@@H]1O[C@](F)(COP(=O)(OCOC(=O)OC(C)C)OCOC(=O)OC(C)C)[C@@H](O)[C@@]1(C)O [Compound 209a]	1 to 10 µM	< 1 µM	–	–
CCOc1nc(N)nc2c1ncn2[C@@H]1O[C@]2(F)CO[P@](=O)(OC(C)C)O[C@H]2[C@@]1(C)O [Compound 144a]	10 to 100 µM	1 to 10 µM	–	–
CC(C)OC(=O)OCOP(=O)(OCOC(=O)OC(C)C)OC[C@@]1(CF)O[C@@H](n2ccc(=O)[nH]c2=O)[C@](C)(O)[C@@H]1O [Compound 156a]	1 to 10 µM	< 1 µM	–	–
CCOc1nc(N)nc2c1ncn2[C@@H]1O[C@](F)(COP(=O)(N[C@@H](C)C(=O)OC2CCCCC2)Oc2ccccc2)[C@@H](O)[C@@]1(C)O (some centres unmarked) [Compound 128a]	–	–	–	EC50 (NV genome in HG23 cells; Norovirus, HG23, 48 h): 1 to 10 µM
C#C[C@@]1(O)[C@H](O)[C@](CO)(CCl)O[C@H]1n1ccc(=O)[nH]c1=O [Compound 344a]	–	10 to 100 µM	–	–
C#C[C@]1(O)[C@H](n2cnc3c(=O)[nH]c(N)nc32)O[C@](F)(CO)[C@H]1F [Compound 146a]	10 to 100 µM	–	< 1 µM	–
N#C[C@@]1(n2ccc(N)nc2=O)O[C@@](CO)(CF)[C@@H](O)[C@H]1O [Compound 376a]	–	–	–	EC50 (Murine norovirus (MNV-1); [4]): 10 to 100 µM
[N-]=[N+]=N[C@]1(CO)O[C@@H](n2ccc(N)nc2=O)C(F)(F)[C@@H]1O [Compound 380a]	–	1 to 10 µM	–	–
CCOc1nc(N)nc2c1ncn2[C@@H]1O[C@](CF)(COP(=O)(N[C@@H](C)C(=O)OC2CCCCC2)Oc2ccccc2)[C@@H](O)[C@@]1(C)O (some centres unmarked) [Compound 153a]	–	–	–	EC50 (NV genome in HG23 cells; Norovirus, HG23, 48 h): < 1 µM
[N-]=[N+]=NC[C@]1(CO)O[C@@H](n2ccc(N)nc2=O)[C@H](F)[C@@H]1O [Compound 113a]	10 to 100 µM	1 to 10 µM	–	–
C#C[C@]1(O)[C@H](n2ccc(=O)[nH]c2=O)O[C@](F)(COP(=O)(N[C@@H](C)C(=O)OC2CCCCC2)Oc2ccccc2)[C@H]1O (some centres unmarked) [Compound 131a]	–	–	–	EC50 (Murine norovirus (MNV-1); MNV-1, RAW264.7, 72 h): 10 to 100 µM; EC50 (NV genome in HG23 cells; Norovirus, HG23, 48 h): < 1 µM
C#C[C@]1(O)[C@H](n2ccc(=O)[nH]c2=O)O[C@](F)(COP(=O)(OCOC(=O)OC(C)C)OCOC(=O)OC(C)C)[C@H]1O [Compound 208a]	10 to 100 µM	< 1 µM	–	–
CCOc1nc(N)nc2c1ncn2[C@@H]1O[C@](F)(COP(=O)(N[C@@H](C)C(=O)OC2CCCCC2)Oc2ccccc2)[C@@H](F)[C@@]1(C)O (some centres unmarked) [Compound 134a]	–	–	–	EC50 (NV genome in HG23 cells; Norovirus, HG23, 48 h): 1 to 10 µM
Nc1ccn([C@@H]2O[C@@](CO)(CF)[C@@H](O)C2(F)F)c(=O)n1 [Compound 179a]	< 1 µM	1 to 10 µM	–	–
CCOc1nc(N)nc2c1ncn2[C@@H]1O[C@](F)(COP(=O)(OCOC(=O)OC(C)C)OCOC(=O)OC(C)C)[C@@H](O)[C@@]1(C)F [Compound 188a]	1 to 10 µM	< 1 µM	–	–
C#C[C@]1(O)[C@H](n2cnc3c(OCC)nc(N)nc32)O[C@](F)(CO[P@](=O)(N[C@@H](C)C(=O)OC2CCCCC2)Oc2ccccc2)[C@H]1O [Compound 142a]	–	–	–	EC50 (NV genome in HG23 cells; [5]): 1 to 10 µM
C[C@@]1(O)[C@H](O)[C@](CO)(CF)O[C@H]1n1ccc(N)nc1=O [Compound 338a]	–	10 to 100 µM	–	–
Nc1ccn([C@@H]2O[C@@](CO)(CF)[C@@H](O)[C@H]2F)c(=O)n1 [Compound 23a]	1 to 10 µM	10 to 100 µM	–	–
CCOc1nc(N)nc2c1ncn2[C@@H]1O[C@](F)(CO[P@](=O)(N[C@@H](C)C(=O)OC2CCCCC2)Oc2ccccc2)[C@@H](O)[C@@]1(C)F [Compound 140a]	–	–	–	EC50 (Murine norovirus (MNV-1); MNV-1, RAW264.7, 72 h): 1 to 10 µM; EC50 (NV genome in HG23 cells; Norovirus, HG23, 48 h): < 1 µM

Structure (SMILES)	EC50 (Murine norovirus (MNV-1); [2])	EC50 (NV genome in HG23 cells; [3])	IC50 [1]	further results
C#C[C@@]1(O)[C@H](O)[C@@](CF)(COP(=O)(OCOC(=O)OC(C)C)OCOC(=O)OC(C)C)O[C@H]1n1cnc2c(N)ncnc21 [Compound 168a]	10 to 100 µM	< 1 µM	–	–
C#C[C@]1(F)[C@H](n2cnc3c(OCC)nc(N)nc32)O[C@](F)(COP(=O)(N[C@@H](C)C(=O)OC2CCCCC2)Oc2ccccc2)[C@H]1O (some centres unmarked) [Compound 147a]	–	–	–	EC50 (NV genome in HG23 cells; Norovirus, HG23, 48 h): < 1 µM
C#C[C@]1(F)[C@H](n2cnc3c(OCC)nc(N)nc32)O[C@](F)(COP(=O)(N[C@@H](C)C(=O)OC2CCCCC2)Oc2ccccc2)[C@H]1O (some centres unmarked) [Compound 148a]	–	–	–	EC50 (NV genome in HG23 cells; HG23 cells, reduction of NV genome vs mock-medium at 48 h): < 1 µM
[N-]=[N+]=N[C@]1(CO)O[C@@H](n2ccc(N)nc2=O)[C@H](O)[C@@H]1O [Compound 381a]	–	10 to 100 µM	–	–
CCOc1nc(N)nc2c1ncn2[C@@H]1O[C@](F)(CO[P@@](=O)(N[C@@H](C)C(=O)OC2CCCCC2)Oc2ccccc2)[C@@H](O)[C@@]1(C)F [Compound 141a]	–	–	–	EC50 (Murine norovirus (MNV-1); [4]): 1 to 10 µM; EC50 (NV genome in HG23 cells; [5]): 1 to 10 µM
C[C@@]1(Cl)[C@H](O)[C@@H](COP(=O)(O)OP(=O)(O)OP(=O)(O)O)O[C@H]1n1cnc2c(=O)[nH]c(N)nc21 [Compound 343a]	–	–	< 1 µM	–
CCC[C@]1(CO)O[C@@H](n2ccc(N)nc2=O)[C@H](F)[C@@H]1O [Compound 21a]	–	–	1 to 10 µM	–
C#C[C@]1(COP(=O)(O)OP(=O)(O)OP(=O)(O)O)O[C@@H](n2ccc(N)nc2=O)[C@H](F)[C@@H]1O [Compound 36c]	–	–	1 to 10 µM	–
CO[C@]1(COP(=O)(O)OP(=O)(O)OP(=O)(O)O)O[C@@H](n2ccc(N)nc2=O)[C@H](F)[C@@H]1O [Compound 36d]	–	–	1 to 10 µM	–
O=c1ccn([C@@H]2O[C@](CCl)(COP(=O)(O)OP(=O)(O)OP(=O)(O)O)[C@@H](O)C2(F)F)c(=O)[nH]1 [Compound 222a]	–	–	10 to 100 µM	–
Nc1nc(=O)n([C@@H]2O[C@](CCl)(COP(=O)(O)OP(=O)(O)OP(=O)(O)O)[C@@H](O)[C@H]2F)cc1F [Compound 97g]	–	–	1 to 10 µM	–
Nc1ccn([C@@H]2O[C@](CF)(COP(=O)(O)OP(=O)(O)OP(=O)(O)O)[C@@H](O)[C@]2(O)CF)c(=O)n1 [Compound 355a]	–	–	< 1 µM	–
C#C[C@@]1(O)[C@H](O)[C@@](CCl)(COP(=O)(O)OP(=O)(O)OP(=O)(O)O)O[C@H]1n1cnc2c(N)ncnc21 [Compound 342a]	–	–	< 1 µM	–
Nc1ccn([C@@H]2O[C@@](COP(=O)(O)OP(=O)(O)OP(=O)(O)O)(CC(F)F)[C@@H](O)[C@H]2F)c(=O)n1 [Compound 272a]	–	–	1 to 10 µM	–
[N-]=[N+]=NC[C@]1(COP(=O)(O)OP(=O)(O)OP(=O)(O)O)O[C@@H](n2cnc3c(N)ncnc32)[C@H](F)[C@@H]1O [Compound 212a]	–	–	1 to 10 µM	–
CCOc1nc(N)nc2c1ncn2[C@@H]1O[C@]2(F)CO[P@](=O)(OC(C)C)O[C@H]2[C@@]1(C)F [Compound 149a]	–	–	–	EC50 (Murine norovirus (MNV-1); [4]): 10 to 100 µM; EC50 (NV genome in HG23 cells; [5]): 1 to 10 µM
[N-]=[N+]=N[C@]1(CO)O[C@@H](n2ccc(N)nc2=O)[C@@H](O)[C@@H]1O [Compound 266a]	–	1 to 10 µM	–	–
C#C[C@]1(O)[C@H](n2cnc3c(=O)[nH]c(N)nc32)O[C@](F)(COP(=O)(O)OP(=O)(O)OP(=O)(O)O)[C@H]1O [Compound 236a]	–	–	< 1 µM	–
N#C[C@]1(COP(=O)(O)OP(=O)(O)OP(=O)(O)O)O[C@@H](n2cnc3c(=O)[nH]c(N)nc32)[C@H](F)[C@@H]1O [Compound 34e]	–	–	< 1 µM	–
C#C[C@]1(F)[C@H](n2ccc(=O)[nH]c2=O)O[C@](F)(COP(=O)(O)OP(=O)(O)OP(=O)(O)O)[C@H]1O [Compound 313a]	–	–	1 to 10 µM	–
C#C[C@]1(O)[C@H](n2cnc3c(OCC)nc(N)nc32)O[C@](F)(CO[P@@](=O)(N[C@@H](C)C(=O)OC2CCCCC2)Oc2ccccc2)[C@H]1O [Compound 143a]	–	–	–	EC50 (NV genome in HG23 cells; [5]): 1 to 10 µM
